Reference: patent publication US10189841B2, “Purinones as ubiquitin-specific protease 1 inhibitors” (Forma Therapeutics, Inc., priority 2015, dated 2019)

Molecular target: USP1 (construct USP1 (I-785, GG670, 671AA)/UAF1 (I-677)-Flag) (Homo sapiens (Human), UniProt O94782, G670A/G671A)
Experiment: Ubiquitin-Rhodamine 110 assay for USP1 activity
Type: biochemical
Conditions: USP1/UAF1 25 pM, Ub-Rh110 25 nM, 30 min preincubation
Summary of the method: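 Ub-Rh110 (25 nM, ≪Km) cleavage read at ex 485/em 535 in Tris pH 8.0, CaCl2, GSH, Prionex, Triton X-100. The screen used 10 µM compound, 100 pM USP1/UAF1 and 45 min at RT.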

Chain of USP1 (construct USP1 (I-785, GG670, 671AA)/UAF1 (I-677)-Flag) (O94782 whole entry G670A/G671A): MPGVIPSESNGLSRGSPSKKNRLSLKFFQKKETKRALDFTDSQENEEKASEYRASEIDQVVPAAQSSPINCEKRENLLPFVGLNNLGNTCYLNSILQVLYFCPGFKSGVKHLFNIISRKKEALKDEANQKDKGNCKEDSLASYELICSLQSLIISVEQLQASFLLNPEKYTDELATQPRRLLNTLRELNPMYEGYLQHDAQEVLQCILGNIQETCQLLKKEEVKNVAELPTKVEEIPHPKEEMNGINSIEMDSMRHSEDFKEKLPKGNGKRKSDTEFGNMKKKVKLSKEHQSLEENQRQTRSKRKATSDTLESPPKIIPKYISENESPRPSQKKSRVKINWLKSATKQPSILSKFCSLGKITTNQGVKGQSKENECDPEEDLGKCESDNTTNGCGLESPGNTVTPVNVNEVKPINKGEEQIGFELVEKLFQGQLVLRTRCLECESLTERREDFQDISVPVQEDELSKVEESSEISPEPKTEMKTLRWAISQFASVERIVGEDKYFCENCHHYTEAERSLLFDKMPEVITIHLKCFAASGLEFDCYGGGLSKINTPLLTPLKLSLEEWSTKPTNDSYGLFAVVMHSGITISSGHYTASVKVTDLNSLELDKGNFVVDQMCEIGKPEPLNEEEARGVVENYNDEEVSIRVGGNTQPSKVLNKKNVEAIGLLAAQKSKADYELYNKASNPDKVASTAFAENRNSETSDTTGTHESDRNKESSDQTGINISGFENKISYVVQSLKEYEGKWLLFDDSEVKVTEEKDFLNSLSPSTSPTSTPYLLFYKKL
Chain of USP1 (construct USP1 (I-785, GG670, 671AA)/UAF1 (I-677)-Flag) (Q8TAF3 whole entry partner): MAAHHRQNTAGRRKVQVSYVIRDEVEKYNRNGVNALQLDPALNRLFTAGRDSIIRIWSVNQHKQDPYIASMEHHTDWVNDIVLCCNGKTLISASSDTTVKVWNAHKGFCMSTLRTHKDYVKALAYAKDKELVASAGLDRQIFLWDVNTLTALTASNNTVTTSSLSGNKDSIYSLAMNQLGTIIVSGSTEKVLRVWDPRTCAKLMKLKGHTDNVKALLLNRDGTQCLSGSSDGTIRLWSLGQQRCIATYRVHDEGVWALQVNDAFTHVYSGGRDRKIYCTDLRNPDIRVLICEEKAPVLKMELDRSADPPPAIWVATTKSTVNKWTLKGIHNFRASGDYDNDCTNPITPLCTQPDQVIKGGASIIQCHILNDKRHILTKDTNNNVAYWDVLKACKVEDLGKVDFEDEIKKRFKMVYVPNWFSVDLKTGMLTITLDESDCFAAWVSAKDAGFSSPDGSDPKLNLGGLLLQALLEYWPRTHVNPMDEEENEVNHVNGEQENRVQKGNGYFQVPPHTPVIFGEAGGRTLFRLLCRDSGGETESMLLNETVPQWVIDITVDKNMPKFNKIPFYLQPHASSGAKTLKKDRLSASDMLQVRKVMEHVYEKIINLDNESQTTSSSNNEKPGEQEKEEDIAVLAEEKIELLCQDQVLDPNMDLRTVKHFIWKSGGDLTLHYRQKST

SMILES	IC50
CC(C)c1ccccc1-c1ncc2[nH]c(=O)n(Cc3ccc(N4CCCC4=O)cc3)c2n1 [Compound I-512, 2-(2-Isopropylphenyl)-9-(4-(2-oxopyrrolidin-1-yl)benzyl)-7,9-dihydro-8H-purin-8-one]	50 to 200 nM
CC(C)c1ccccc1-c1ncc2[nH]c(=O)n(Cc3ccc(-c4nnn[nH]4)cc3)c2n1 [Compound I-513, 9-(4-(1H-tetrazol-5-yl)benzyl)-2-(2-isopropylphenyl)-7,9-dihydro-8H-purin-8-one]	> 2000 nM
Cc1nc(N2CCC(F)(Cn3c(=O)[nH]c4cnc(-c5ccccc5C(C)C)nc43)CC2)c(C)s1 [Compound I-514, 9-((1-(2,5-Dimethylthiazol-4-yl)-4-fluoropiperidin-4-yl)methyl)-2-(2-isopropylphenyl)-7,9-dihydro-8H-purin-8-one]	< 50 nM
CC(C)c1ncccc1-c1ncc2c(n1)n(Cc1ccc(-c3nc(C4CC4)cn3C)cc1)c(=O)n2C [Compound I-515, 9-(4-(4-cyclopropyl-1-methyl-1H-imidazol-2-yl)benzyl)-2-(2-isopropylpyridin-3-yl)-7-methyl-7,9-dihydro-8H-purin-8-one]	50 to 200 nM
CC(C)c1cnccc1-c1ncc2c(n1)n(Cc1ccc(-n3cccn3)cc1)c(=O)n2C [Compound I-516, 9-(4-(1H-Pyrazol-1-yl)benzyl)-2-(3-isopropylpyridin-4-yl)-7-methyl-7,9-dihydro-8H-purin-8-one]	> 2000 nM
CC(C)c1cccnc1-c1ncc2c(n1)n(Cc1ccc(-n3cccn3)cc1)c(=O)n2C [Compound I-517, 9-(4-(1H-Pyrazol-1-yl)benzyl)-2-(3-isopropylpyridin-2-yl)-7-methyl-7,9-dihydro-8H-purin-8-one]	> 2000 nM
COCCn1cc(-c2ccc(Cn3c(=O)[nH]c4cnc(-c5ccccc5C(C)C)nc43)cc2)cn1 [Compound I-518, 2-(2-Isopropylphenyl)-9-(4-(1-(2-methoxyethyl)-1H-pyrazol-4-yl)benzyl)-7,9-dihydro-8H-purin-8-one]	50 to 200 nM
CC(C)c1ccccc1-c1ncc2[nH]c(=O)n(Cc3ccc(-c4cnn(C5CCOCC5)c4)cc3)c2n1 [Compound I-519, 2-(2-Isopropylphenyl)-9-(4-(1-(tetrahydro-2H-pyran-4-yl)-1H-pyrazol-4-yl)benzyl)-7,9-dihydro-8H-purin-8-one]	200 to 2000 nM
CC(C)c1ccccc1-c1ncc2[nH]c(=O)n(Cc3ccc(-c4cnn(CCN(C)C)c4)cc3)c2n1 [Compound I-520, 9-(4-(1-(2-(Dimethylamino)ethyl)-1H-pyrazol-4-yl)benzyl)-2-(2-isopropylphenyl)-7,9-dihydro-8H-purin-8-one]	200 to 2000 nM
CC(C)c1ccccc1-c1ncc2[nH]c(=O)n(Cc3ccc(-c4cn(CCN(C)C)nn4)cc3)c2n1 [Compound I-521, 9-(4-(1-(2-(Dimethylamino)ethyl)-1H-1,2,3-triazol-4-yl)benzyl)-2-(2-isopropylphenyl)-7,9-dihydro-8H-purin-8-one]	200 to 2000 nM
CC(C)c1ccccc1-c1ncc2[nH]c(=O)n(Cc3ccc(-c4cn(CCO)nn4)cc3)c2n1 [Compound I-522, 9-(4-(1-(2-Hydroxyethyl)-1H-1,2,3-triazol-4-yl)benzyl)-2-(2-isopropylphenyl)-7,9-dihydro-8H-purin-8-one]	200 to 2000 nM
CC(C)c1ccccc1-c1ncc2[nH]c(=O)n(Cc3ccc(-c4cn[nH]n4)cc3)c2n1 [Compound I-523, 9-(4-(1H-1,2,3-triazol-5-yl)benzyl)-2-(2-isopropylphenyl)-7,9-dihydro-8H-purin-8-one]	50 to 200 nM
COC(=O)c1ccccc1-c1ncc2[nH]c(=O)n(Cc3ccc(-c4nc(C(F)(F)F)cn4C)cc3)c2n1 [Compound I-524, Methyl 2-(9-(4-(1-Methyl-4-(trifluoromethyl)-1H-imidazol-2-yl)benzyl)-8-oxo-8,9-dihydro-7H-purin-2-yl)benzoate]	< 50 nM
Cn1cc(C(F)(F)F)nc1-c1ccc(Cn2c(=O)[nH]c3cnc(-c4ccccc4C(C)(C)O)nc32)cc1 [Compound I-525, 2-(2-(2-hydroxypropan-2-yl)phenyl)-9-(4-(1-methyl-4-(trifluoromethyl)-1H-imidazol-2-yl)benzyl)-7,9-dihydro-8H-purin-8-one]	< 50 nM
Cn1cc(C(F)(F)F)nc1-c1ccc(Cn2c(=O)[nH]c3cnc(-c4ccccc4C4(O)CC4)nc32)cc1 [Compound I-526, 2-(2-(1-Hydroxycyclopropyl)phenyl)-9-(4-(1-methyl-4-(trifluoromethyl)-1H-imidazol-2-yl)benzyl)-7,9-dihydro-8H-purin-8-one]	< 50 nM
CCC(=O)c1ccccc1-c1ncc2[nH]c(=O)n(Cc3ccc(-c4nc(C(F)(F)F)cn4C)cc3)c2n1 [Compound I-527, 9-(4-(1-methyl-4-(trifluoromethyl)-1H-imidazol-2-yl)benzyl)-2-(2-propionylphenyl)-7,9-dihydro-8H-purin-8-one]	200 to 2000 nM

SMILES	IC50
CC(C)(O)c1ccccc1-c1ncc2[nH]c(=O)n(Cc3ccc(-n4cccn4)cc3)c2n1 [Compound I-528, 9-(4-(1H-Pyrazol-1-yl)benzyl)-2-(2-(2-hydroxypropan-2-yl)phenyl)-7,9-dihydro-8H-purin-8-one]	200 to 2000 nM
CC(C)c1ccccc1-c1ncc2c(n1)n(Cc1ccc(-c3ncc[nH]3)cc1)c(=O)n2C [Compound I-529, 9-(4-(1H-Imidazol-2-yl)benzyl)-2-(2-isopropylphenyl)-7-methyl-7,9-dihydro-8H-purin-8-one]	50 to 200 nM
CC(C)c1ccccc1-c1ncc2c(n1)n(Cc1ccc(-n3cccn3)cc1)c(=O)n2C(C)C(=O)O (centres unmarked) [Compound I-530, 2-(9-(4-(1H-Pyrazol-1-yl)benzyl)-2-(2-isopropylphenyl)-8-oxo-8,9-dihydro-7H-purin-7-yl)propanoic acid]	200 to 2000 nM
CNc1nc(-c2cccnc2OC(F)F)nc2c1[nH]c(=O)n2Cc1ccc(-c2nc(C(F)(F)F)cn2C)cc1 [Compound I-531, 2-(2-(Difluoromethoxy)pyridin-3-yl)-9-(4-(1-methyl-4-(trifluoromethyl)-1H-imidazol-2-yl)benzyl)-6-(methylamino)-7,9-dihydro-8H-purin-8-one]	< 50 nM
CNc1nc(-c2ccccc2C(C)C)nc2c1[nH]c(=O)n2Cc1ccc(-c2nc(C(F)(F)F)cn2C)cc1 [Compound I-532, 2-(2-Isopropylphenyl)-9-(4-(1-methyl-4-(trifluoromethyl)-1H-imidazol-2-yl)benzyl)-6-(methylamino)-7,9-dihydro-8H-purin-8-one]	< 50 nM
CC(C)c1ccccc1-c1nc(N(C)C)c2[nH]c(=O)n(Cc3ccc(-c4nc(C(F)(F)F)cn4C)cc3)c2n1 [Compound I-533, 6-(Dimethylamino)-2-(2-isopropylphenyl)-9-(4-(1-methyl-4-(trifluoromethyl)-1H-imidazol-2-yl)benzyl)-7,9-dihydro-8H-purin-8-one]	< 50 nM
CC(=O)c1nc(-c2ccccc2C(C)C)nc2c1[nH]c(=O)n2Cc1ccc(-c2nc(C(F)(F)F)cn2C)cc1 [Compound I-534, 6-Acetyl-2-(2-isopropylphenyl)-9-(4-(1-methyl-4-(trifluoromethyl)-1H-imidazol-2-yl)benzyl)-7,9-dihydro-8H-purin-8-one]	50 to 200 nM
COc1nc(-c2ccccc2C(C)C)nc2c1[nH]c(=O)n2Cc1ccc(-c2nc(C(F)(F)F)cn2C)cc1 [Compound I-535, 2-(2-Isopropylphenyl)-6-methoxy-9-(4-(1-methyl-4-(trifluoromethyl)-1H-imidazol-2-yl)benzyl)-7,9-dihydro-8H-purin-8-one]	< 50 nM
Cc1cnc(-c2ccc(Cn3c(=O)[nH]c4cnc(-c5ccccc5C(C)C)nc43)cc2)n1C(C)C [Compound I-536, 9-(4-(1-Isopropyl-5-methyl-1H-imidazol-2-yl)benzyl)-2-(2-isopropylphenyl)-7,9-dihydro-8H-purin-8-one]	< 50 nM
Cc1cn(C(C)C)c(-c2ccc(Cn3c(=O)[nH]c4cnc(-c5ccccc5C(C)C)nc43)cc2)n1 [Compound I-537, 9-(4-(1-isopropyl-4-methyl-1H-imidazol-2-yl)benzyl)-2-(2-isopropylphenyl)-7,9-dihydro-8H-purin-8-one]	< 50 nM
CC(=O)Nc1cn(C)c(-c2ccc(Cn3c(=O)[nH]c4cnc(-c5ccccc5C(C)C)nc43)cc2)n1 [Compound I-538, N-(2-(4-((2-(2-isopropylphenyl)-8-oxo-7,8-dihydro-9H-purin-9-yl)methyl)phenyl)-1-methyl-1H-imidazol-4-yl)acetamide]	50 to 200 nM
CC(C)c1ccccc1-c1ncc2[nH]c(=O)n(Cc3ccc(-c4cn[nH]c4)cc3)c2n1 [Compound I-539, 9-(4-(1H-Pyrazol-4-yl)benzyl)-2-(2-isopropylphenyl)-7,9-dihydro-8H-purin-8-one]	200 to 2000 nM
CC(C)c1ccccc1-c1ncc2[nH]c(=O)n(Cc3ccc(-c4cnn(C5CCNCC5)c4)cc3)c2n1 [Compound I-540, 2-(2-isopropylphenyl)-9-(4-(1-(piperidin-4-yl)-1H-pyrazol-4-yl)benzyl)-7,9-dihydro-8H-purin-8-one]	200 to 2000 nM
CC(C)c1ccccc1-c1ncc2c(n1)n(Cc1ccc(-c3nc(C#N)cn3C)cc1)c(=O)n2C [Compound I-541, 2-(4-((2-(2-Isopropylphenyl)-7-methyl-8-oxo-7,8-dihydro-9H-purin-9-yl)methyl)phenyl)-1-methyl-1H-imidazole-4-carbonitrile]	< 50 nM
Cc1cc(CO)n(-c2ccc(Cn3c(=O)[nH]c4cnc(-c5ccccc5C5CC5)nc43)cc2)n1 [Compound I-542, 2-(2-Cyclopropylphenyl)-9-(4-(5-(hydroxymethyl)-3-methyl-1H-pyrazol-1-yl)benzyl)-7,9-dihydro-8H-purin-8-one]	< 50 nM
COC(=O)N1CCC(c2ccn(-c3ccc(Cn4c(=O)[nH]c5cnc(-c6ccccc6C(C)C)nc54)cc3)n2)CC1 [Compound I-543, Methyl 4-(1-(4-((2-(2-isopropylphenyl)-8-oxo-7,8-dihydro-9H-purin-9-yl)methyl)phenyl)-1H-pyrazol-3-yl)piperidine-1-carboxylate]	< 50 nM
